Results as given in PubChem BioAssay AID256 (DTP/NCI, 2004).
“And” between values parts separate entries of the source, which are not always exact repeats. Identical values can stand only once. Toxic doses and inconclusive results are not listed. Rule for the calls: active = survival T/C of 150% or more; inactive = T/C below 125% in these data.

Tested on: CD2F1 mice, L1210 leukemia ip, survival T/C
Experiment: NCI In Vivo Anticancer Drug Screen. Data for tumor model L1210 Leukemia (intraperitoneal) in CD2F1 (CDF1) mice
Conditions: higher = longer survival
Procedure, shortened: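 Compound-dosed mice with transplantable tumor versus matched vehicle controls; endpoint ratio T/C reported.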

[1] = endpoint: mean survival time, dose: 100.0 mg/kg/injection, schedule: Q01DX001 (ip), vehicle: saline with Tween-80
[2] = endpoint: mean survival time, dose: 400.0 mg/kg/injection, schedule: Q01DX001 (ip), vehicle: saline with Tween-80
[3] = endpoint: mean survival time, dose: 50.0 mg/kg/injection, schedule: Q01DX001 (ip), vehicle: saline with Tween-80
[4] = endpoint: mean survival time, dose: 100.0 mg/kg/injection, schedule: Q01DX009 (ip), vehicle: saline with Tween-80
[5] = endpoint: mean survival time, dose: 100.0 mg/kg/injection, schedule: Q04DX002 (ip), vehicle: saline with Tween-80
[6] = endpoint: mean survival time, dose: 100.0 mg/kg/injection, schedule: Q04DX003 (ip), vehicle: saline with Tween-80
[7] = endpoint: mean survival time, dose: 200.0 mg/kg/injection, schedule: Q01DX009 (ip), vehicle: saline with Tween-80
[8] = endpoint: mean survival time, dose: 200.0 mg/kg/injection, schedule: Q04DX002 (ip), vehicle: saline with Tween-80
[9] = endpoint: mean survival time, dose: 200.0 mg/kg/injection, schedule: Q04DX003 (ip), vehicle: saline with Tween-80
[10] = endpoint: mean survival time, dose: 400.0 mg/kg/injection, schedule: Q01DX009 (ip), vehicle: saline with Tween-80
[11] = endpoint: mean survival time, dose: 400.0 mg/kg/injection, schedule: Q04DX002 (ip), vehicle: saline with Tween-80
[12] = endpoint: mean survival time, dose: 400.0 mg/kg/injection, schedule: Q04DX003 (ip), vehicle: saline with Tween-80
[13] = endpoint: mean survival time, dose: 3.12 mg/kg/injection, schedule: Q01DX009 (ip), vehicle: saline with Tween-80
[14] = endpoint: mean survival time, dose: 6.25 mg/kg/injection, schedule: Q01DX009 (ip), vehicle: saline with Tween-80
[15] = endpoint: mean survival time, dose: 12.5 mg/kg/injection, schedule: Q01DX009 (ip), vehicle: saline with Tween-80
[16] = endpoint: mean survival time, dose: 25.0 mg/kg/injection, schedule: Q01DX009 (ip), vehicle: saline with Tween-80

Measured: T/C

CCCCCCCCSCC(CSCCCCCCCC)(CSCCCCCCCC)CSCCCCCCCC
inactive: [1] 101 % of control | endpoint: mean survival time, dose: 200.0 mg/kg/injection, schedule: Q01DX001 (ip), vehicle: saline with Tween-80 93 % of control | [2] 93 % of control

CCOC(=O)c1ccc(NC(=O)N2CCC(CCCc3ccccc3)CC2)cc1
inactive: [3] 100 % of control | [1] 88 % of control and 98 % of control | [4] 87 % of control and 91 % of control | [5] 91 % of control and 95 % of control | [6] 98 % of control | [7] 87 % of control and 93 % of control | [8] 91 % of control | [9] 87 % of control | [2] 88 % of control and 94 % of control | [10] 93 % of control | [11] 90 % of control | [12] 90 % of control

O=C(OC(=O)c1cccc(-c2ccccc2)c1)c1cccc(-c2ccccc2)c1
inactive: endpoint: mean survival time, dose: 100.0 mg/kg/injection, schedule: Q01DX009 (ip), vehicle: Klucel (hydroxypropylcellulose) (HPC) 109 % of control | endpoint: mean survival time, dose: 200.0 mg/kg/injection, schedule: Q01DX009 (ip), vehicle: Klucel (hydroxypropylcellulose) (HPC) 100 % of control | endpoint: mean survival time, dose: 400.0 mg/kg/injection, schedule: Q01DX009 (ip), vehicle: Klucel (hydroxypropylcellulose) (HPC) 97 % of control

CCOC(=O)/C(N=O)=C(/C)O
inactive: endpoint: mean survival time, dose: 100.0 mg/kg/injection, schedule: Q01DX009 (ip), vehicle: saline 96 % of control | endpoint: mean survival time, dose: 200.0 mg/kg/injection, schedule: Q01DX009 (ip), vehicle: saline 101 % of control | endpoint: mean survival time, dose: 400.0 mg/kg/injection, schedule: Q01DX009 (ip), vehicle: saline 110 % of control

O=[N+]([O-])c1c(Cl)c(Cl)cc(Cl)c1Cl
inactive: [4] 94 % of control | [6] 93 % of control | [7] 96 % of control | [9] 97 % of control | [10] 98 % of control | [12] 98 % of control

Nc1nc(=S)c2n[nH]nc2[nH]1
inactive: endpoint: mean survival time, dose: 25.0 mg/kg/injection, schedule: Q01DX001 (ip), vehicle: saline with Tween-80 102 % of control | [3] 104 % of control

Nc1nnc[se]1
inactive: [13] 102 % of control and 104 % of control | [14] 109 % of control and 110 % of control | [15] 116 % of control and 117 % of control and 110 % of control | [16] 120 % of control | endpoint: mean survival time, dose: 50.0 mg/kg/injection, schedule: Q01DX009 (ip), vehicle: saline with Tween-80 120 % of control and 98 % of control | [4] 105 % of control | endpoint: median survival time, dose: 6.25 mg/kg/injection, schedule: Q01DX009 (ip), vehicle: saline with Tween-80 106 % of control | endpoint: median survival time, dose: 12.5 mg/kg/injection, schedule: Q01DX009 (ip), vehicle: saline with Tween-80 109 % of control | endpoint: median survival time, dose: 25.0 mg/kg/injection, schedule: Q01DX009 (ip), vehicle: saline with Tween-80 108 % of control

C=CCNc1n[nH]c(=S)s1
inactive: [6] 100 % of control | [9] 96 % of control | [12] 105 % of control

Cc1ccc(NC(=O)/C=C/c2ccccc2)c(C)c1
inactive: [5] 94 % of control | [8] 94 % of control | [11] 94 % of control

O=C(Nc1ccccc1CCl)Nc1ccccc1CCl
inactive: endpoint: median survival time, dose: 50.0 mg/kg/injection, schedule: Q01DX005 (ip), vehicle: saline with Tween-80 111 % of control | endpoint: median survival time, dose: 100.0 mg/kg/injection, schedule: Q01DX005 (ip), vehicle: saline with Tween-80 117 % of control | endpoint: median survival time, dose: 200.0 mg/kg/injection, schedule: Q01DX005 (ip), vehicle: saline with Tween-80 115 % of control | endpoint: median survival time, dose: 400.0 mg/kg/injection, schedule: Q01DX005 (ip), vehicle: saline with Tween-80 121 % of control

[NH-]c1ncnc2c1ncn2C1OC(CO)C(O)C1O.[NH-]c1ncnc2c1ncn2C1OC(CO)C(O)C1O.[Pt+2] (stereo not drawn)
inactive: endpoint: mean survival time, dose: 12.5 mg/kg/injection, schedule: Q04DX003 (ip), vehicle: saline with Tween-80 92 % of control | endpoint: mean survival time, dose: 25.0 mg/kg/injection, schedule: Q04DX003 (ip), vehicle: saline with Tween-80 95 % of control | endpoint: mean survival time, dose: 50.0 mg/kg/injection, schedule: Q04DX003 (ip), vehicle: saline with Tween-80 92 % of control | [6] 89 % of control | [9] 86 % of control

O/N=C/c1ccccc1O.O/N=C/c1ccccc1O.[Cu]
inactive: endpoint: mean survival time, dose: 1.56 mg/kg/injection, schedule: Q01DX009 (ip), vehicle: saline with Tween-80 98 % of control and 103 % of control | [13] 102 % of control and 106 % of control | [14] 93 % of control and 101 % of control | [15] 100 % of control and 108 % of control | [16] 114 % of control and 100 % of control
